Data as given in US20260109707A1, “HETEROBIFUNCTIONAL COMPOUNDS AND METHODS OF TREATING DISEASE” (Halda Therapeutics OpCo. Inc., priority 2022, published 2026).

Key:
[1] = system: T-Rex 293 cell line SC3 cells having increased expression of androgen receptor protein due to exposure to doxycycline; assay: Cellular growth inhibition assay, T-Rex 293 SC3 cells with doxycycline (CellTiter-Glo, 72 hours); format: cell-based; conditions: 72 h, T-Rex 293 SC3 cells with increased androgen receptor expression due to doxycycline (10 ng/mL)
In short: (§1)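 Growth inhibition is measured in an inducible AR-expressing T-Rex 293 clone, SC3, cultured with or without 10 ng/mL doxycycline in hormone-depleted medium. Test compounds are applied for 72 hours. GI50 values derive from CellTiter-Glo 2.0 signal fitted by four-parameter regression.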

[2] = system: T-Rex 293 cell line SC3 cells lacking increased expression of androgen receptor protein; assay: Cellular growth inhibition assay, T-Rex 293 SC3 cells without doxycycline (CellTiter-Glo, 72 hours); format: cell-based; conditions: T-Rex 293 cell line SC3 cells not exposed to doxycycline (lacking increased androgen receptor expression)
In short: as §1

[3] = system: VCaP cells; assay: Cellular growth inhibition assay for VCaP cells (CellTiter-Glo, 72 hours); format: cell-based, human; conditions: Homo sapiens, VCaP, 72 h
In short: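 Luminescent viability signal after 72 h of compound exposure gave GI50 values by four-parameter nonlinear regression. Compounds were added in 0.5% DMSO to cells plated 24 h earlier at 5000/well in DMEM containing 10% FBS.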

[4] = system: T47D cells; assay: Cellular growth inhibition assay for T47D cells (CellTiter-Glo, 72 hours); format: cell-based, human; conditions: 72 hours treatment
In short: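 Luminescence from CellTiter-Glo 2.0 after 72 h of compound exposure gives the viability signal. Cells grew in insulin-supplemented (0.2 units/mL) DMEM with 10% FBS and were treated one day after seeding at 0.5% DMSO. GI50 values come from four-parameter nonlinear regression.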

Row | Compound | GI50 [3] [nM] | GI50 ([4]; Homo sapiens, T47D, 72 h) [nM] | GI50 [4] [nM] | GI50 [1] [nM] | GI50 ([2]; 72 h) [nM] | GI50 [2] [nM]
1 | CNc1ccc2c(n1)C(c1ccc(OC3CC4(CCN(c5ccc(C(=O)N[C@H]6CC[C@H](Oc7ccc(C#N)c(Cl)c7)CC6)nn5)CC4)C3)cc1)=NCc1onc(C)c1-2 [I-106] | < 500 | > 3000 |  | < 500 | > 3000 | 
2 | Cc1sc2c(c1C)C(c1ccc(CCO[C@@H]3CCCN(c4ccc(C(=O)N[C@H]5CC[C@H](Oc6ccc(C#N)c(Cl)c6)CC5)nn4)C3)cc1)=N[C@@H](C)c1nnc(C)n1-2 [I-324] | > 3000 | 1500 to 3000 |  | < 500 | > 3000 | 
3 | Cc1sc2c(c1C)C(c1ccc(CCCC3CCN(c4ccc(C(=O)N[C@H]5CC[C@H](Oc6ccc(C#N)c(Cl)c6)CC5)nn4)CC3)cc1)=NC(Cc1ncco1)c1nnc(C)n1-2 (some centres unmarked) [I-75] | < 500 | < 500 |  | < 500 | < 500 | 
4 | Cc1sc2c(c1C)C(c1ccc(N3CCC[C@H](C(=O)N4CCC[C@H](c5ccc(C(=O)N[C@H]6CC[C@H](Oc7ccc(C#N)c(Cl)c7)CC6)nn5)C4)C3)cc1)=N[C@H](Cc1ncco1)c1nnc(C)n1-2 [I-303] | > 3000 | > 3000 |  | > 3000 | > 3000 | 
5 | Cc1sc2c(c1C)C(c1ccc(C[C@H]3CCC4CN(c5ccc(C(=O)N[C@H]6CC[C@H](Oc7ccc(C#N)c(Cl)c7)CC6)nn5)CCN4C3)cc1)=N[C@H](Cc1ncco1)c1nnc(C)n1-2 (some centres unmarked) [I-260] | < 500 | < 500 |  | < 500 | < 500 | 
6 | Cc1sc2c(c1C)C(c1ccc(CC(=O)N3CCC(c4ccc(C(=O)N[C@H]5CC[C@H](Oc6ccc(C#N)c(Cl)c6)CC5)nn4)CC3)cc1)=N[C@H](Cc1ncco1)c1nnc(C)n1-2 [I-331] | < 500 | 1500 to 3000 |  | > 3000 | > 3000 | 
7 | Cc1sc2c(c1C)C(c1ccc(N(C)CC(=O)NCc3ccc(C(=O)N[C@H]4CC[C@H](Oc5ccc(C#N)c(Cl)c5)CC4)nn3)cc1)=N[C@@H](Cc1ncco1)c1nnc(C)n1-2 [I-332] | > 3000 | > 3000 |  | > 3000 | > 3000 | 
8 | Cc1sc2c(c1C)C(c1ccc(CN3CCC4(CC3)CCN(c3ccc(C(=O)N[C@H]5CC[C@H](Oc6ccc(C#N)c(Cl)c6)CC5)nn3)CC4)cc1)=N[C@@H](Cc1ncco1)c1nnc(C)n1-2 [I-366] | < 500 | < 500 |  | < 500 | < 500 | 
9 | Cc1sc2c(c1C)C(c1ccc(N3CCC[C@H](C(=O)N4CCC[C@@H](c5ccc(C(=O)N[C@H]6CC[C@H](Oc7ccc(C#N)c(Cl)c7)CC6)nn5)C4)C3)cc1)=N[C@@H](Cc1ncco1)c1nnc(C)n1-2 [I-302] | 500 to 1500 | < 500 |  | < 500 | < 500 | 
10 | Cc1sc2c(c1C)C(c1ccc(CN(C)C(=O)[C@@H]3CC[C@@H](c4ccc(C(=O)N[C@H]5CC[C@H](Oc6ccc(C#N)c(Cl)c6)CC5)nn4)C3)cc1)=N[C@@H](Cc1ncco1)c1nnc(C)n1-2 [I-316] | < 500 | 1500 to 3000 |  | < 500 | > 3000 | 
11 | Cc1sc2c(c1C)C(c1ccc(C#C[C@H]3C[C@]4(CCCN(c5ccc(C(=O)N[C@H]6CC[C@H](Oc7ccc(C#N)c(Cl)c7)CC6)nn5)C4)C3)cc1)=N[C@@H](C)c1nnc(C)n1-2 [I-337] | < 500 | 500 to 1500 |  | < 500 | 500 to 1500 | 
12 | Cc1sc2c(c1C)C(c1ccc(OC3CC4(CCN(c5ccc(C(=O)N[C@H]6CC[C@H](Oc7ccc(C#N)c(Cl)c7)CC6)nn5)CC4)C3)cc1)=N[C@](C)(C(C)c1ncco1)c1nnc(C)n1-2 (some centres unmarked) [I-237] | > 3000 | < 500 |  | < 500 | > 3000 | 
13 | CCNC(=O)C[C@@H]1N=C(c2ccc(CN3CCN(c4ccc(C(=O)N[C@H]5CC[C@H](Oc6ccc(C#N)c(Cl)c6)CC5)nn4)CC3)cc2)c2c(sc(C)c2C)-n2c(C)nnc21 [I-38] | < 500 | 500 to 1500 |  | < 500 | 500 to 1500 | 

Further lines, with some results ahead:

Row | GI50 [3] [nM] | GI50 ([4]; Homo sapiens, T47D, 72 h) [nM] | GI50 [4] [nM] | Compound | GI50 [1] [nM] | GI50 ([2]; 72 h) [nM] | GI50 [2] [nM]
14 | < 500 | < 500 |  | Cc1sc2c(c1C)C(c1ccc(OC3CCC4(C3)CN(c3ccc(C(=O)N[C@H]5CC[C@H](Oc6ccc(C#N)c(Cl)c6)CC5)nn3)C4)cc1)=N[C@@H](Cc1ncco1)c1nnc(C)n1-2 (some centres unmarked) [I-85] | < 500 | < 500 | 
15 | < 500 | 500 to 1500 |  | Cc1sc2c(c1C)C(c1ccc(CCO[C@H]3CCCN(c4ccc(C(=O)N[C@H]5CC[C@H](Oc6ccc(C#N)c(Cl)c6)CC5)nn4)C3)cc1)=N[C@@H](Cc1ncco1)c1nnc(C)n1-2 [I-279] | < 500 | < 500 | 
16 | < 500 | < 500 |  | Cc1sc2c(c1C)C(c1ccc(O[C@H]3C[C@@H](N(C(C)C)C4CCN(c5ccc(C(=O)N[C@H]6CC[C@H](Oc7ccc(C#N)c(Cl)c7)CC6)nn5)CC4)C3)cc1)=N[C@@H](Cc1ncco1)c1nnc(C)n1-2 [I-246] | < 500 | < 500 | 
17 | < 500 | < 500 |  | Cc1sc2c(c1C)C(c1ccc(O[C@@H]3CC[C@]4(CCCN(c5ccc(C(=O)N[C@H]6CC[C@H](Oc7ccc(C#N)c(Cl)c7)CC6)nn5)C4)C3)cc1)=N[C@@H](Cc1ncco1)c1nnc(C)n1-2 [I-98] | < 500 | < 500 | 
18 | < 500 | 500 to 1500 |  | Cc1sc2c(c1C)C(c1ccc(OC[C@H]3C[C@@]4(CCCN(c5ccc(C(=O)N[C@H]6CC[C@H](Oc7ccc(C#N)c(Cl)c7)CC6)nn5)C4)C3)nc1)=N[C@@H](Cc1ncco1)c1nnc(C)n1-2 [I-263] | < 500 | > 3000 | 
19 | < 500 | < 500 |  | Cc1sc2c(c1C)C(c1ccc([C@H]3CC[C@@]4(C3)CN(c3ccc(C(=O)N[C@H]5CC[C@H](Oc6ccc(C#N)c(Cl)c6)CC5)nn3)CCO4)cc1)=N[C@@H](Cc1ncco1)c1nnc(C)n1-2 [I-364] | < 500 | > 3000 | 
20 | > 3000 | > 3000 |  | Cc1sc2c(c1C)C(c1ccc([C@H]3C[C@@H](C4CCN(c5ccc(C(=O)N[C@H]6CC[C@H](Oc7ccc(C#N)c(Cl)c7)CC6)nn5)CC4)C3)cc1)=N[C@@H](Cc1ncco1)c1nnc(C)n1-2 [I-371] | > 3000 | > 3000 | 
21 | < 500 | < 500 |  | Cc1sc2c(c1C)C(c1ccc(CCC3CCN(c4ccc(C(=O)NC5CCC(Oc6ccc(C#N)c(Cl)c6)CC5)nn4)CC3)cc1)=N[C@@H](Cc1ncco1)c1nnc(C)n1-2 (stereo partly drawn) [I-74, N-[4-(3-chloro-4-cyano-phenoxy)cyclohexyl]-6-[4-[2-[4-[(9S)-4,5,13-trimethyl-9-(oxazol-2-ylmethyl)-3-thia-1,8,11,12-tetrazatricyclo[8.3.0.02,6]trideca-2(6),4,7,10,12-pentaen-7-yl]phenyl]ethyl]-1-piperidyl]pyridazine-3-carboxamide] | < 500 | < 500 | 
22 | < 500 | < 500 |  | Cc1sc2c(c1C)C(c1ccc(CC(C)(C)N3CC4(CCCN(c5ccc(C(=O)N[C@H]6CC[C@H](Oc7ccc(C#N)c(Cl)c7)CC6)nn5)C4)C3)cc1)=N[C@@H](Cc1ncco1)c1nnc(C)n1-2 [I-393] | < 500 | 1500 to 3000 | 
23 | < 500 | < 500 |  | Cc1sc2c(c1C)C(c1ccc(OCC[C@H]3CCCN(c4ccc(C(=O)N[C@H]5CC[C@H](Oc6ccc(C#N)c(Cl)c6)CC5)nn4)C3)cc1)=N[C@@H](Cc1ncco1)c1nnc(C)n1-2 [I-257] | < 500 | < 500 | 
24 | < 500 | < 500 |  | Cc1sc2c(c1C)C(c1ccc(CCC[C@@H]3CCCN(c4ccc(C(=O)N[C@H]5CC[C@H](Oc6ccc(C#N)c(Cl)c6)CC5)nn4)CC3)cc1)=N[C@@H](Cc1ncco1)c1nnc(C)n1-2 [I-411] | < 500 | < 500 | 
25 | < 500 | < 500 |  | Cc1sc2c(c1C)C(c1ccc(O[C@H]3CC[C@]4(CCCN(c5ccc(C(=O)N[C@H]6CC[C@H](Oc7ccc(C#N)c(Cl)c7)CC6)nn5)C4)C3)cc1)=N[C@@H](Cc1ncco1)c1nnc(C)n1-2 [I-97] | < 500 | < 500 | 
26 | < 500 | < 500 |  | Cc1sc2c(c1C)C(c1ccc([C@H]3C[C@@H]([C@H]4CCCN(c5ccc(C(=O)N[C@H]6CC[C@H](Oc7ccc(C#N)c(Cl)c7)CC6)nn5)C4)C3)cc1)=N[C@@H](Cc1ncco1)c1nnc(C)n1-2 [I-376] | < 500 | < 500 | 
27 | > 3000 | < 500 |  | Cc1sc2c(c1C)C(c1ccc(C[C@H]3C[C@@H](C4CCCN(c5ccc(C(=O)N[C@H]6CC[C@H](Oc7ccc(C#N)c(Cl)c7)CC6)nn5)C4)C3)cc1)=N[C@@H](Cc1ncco1)c1nnc(C)n1-2 (some centres unmarked) [I-120] | < 500 | > 3000 | 
28 | < 500 | < 500 |  | Cc1sc2c(c1C)C(c1ccc(C[C@H]3C[C@]4(CCCN(c5ccc(C(=O)N[C@H]6CC[C@H](Oc7ccc(C#N)c(Cl)c7)CC6)nn5)C4)C3)cc1)=N[C@@H](Cc1ncco1)c1nnc(C)n1-2 [I-119] | < 500 | < 500 | 
29 | < 500 |  | > 3000 | Cc1sc2c(c1C)C(c1ccc(OC3CN(CC4CCN(c5ccc(C(=O)N[C@H]6CC[C@H](Oc7ccc(C#N)c(Cl)c7)CC6)nn5)CC4)C3)cc1)=N[C@@H](Cc1ncco1)c1nnc(C)n1-2 [I-81] | < 500 |  | > 3000
